# Experimental data taken from patent US7439225B2, “Substances K01-B0171 and process for producing the same” (The Kitasato Institute, priority 2003, dated 2008).
# Positions of bridges follow the written chain, without caps; N, C: chain ends. Residues, ends and D or L forms follow the SMILES beside them.
# Experiments:
# [1] = Grouping for acidic, neutral and basic; type: physicochemical
# Solubility in solvent = type: physicochemical
SMILES,"Grouping for acidic, neutral and basic [1]",Solubility in solvent (Solubility in solvent)
CCC(C)C(NC(=O)C(NC(=O)C(CC(N)=O)NC(=O)C(CO)NC(=O)C(Cc1c[nH]cn1)NC(=O)CNC(=O)C(NC(=O)C(Cc1c[nH]c2ccccc12)NC(=O)C1CCC(=O)NCC(=O)NC(CO)C(=O)NC(CCC(N)=O)C(=O)NC(CC(C)C)C(=O)NC(C(C)C)C(=O)NC(Cc2ccc(O)cc2)C(=O)NC(CCCNC(=N)N)C(=O)N1)C(C)C)C(C)C)C(=O)NC(CCCCN)C(=O)NCC(=O)N1CCCC1C(=O)N1CCCC1C(=O)O (stereo not shown) [K01-B0171-C substance] (GSQLVYREWVGHSNVIKGPP-OH; lactam N-8; configuration not given here),Weak basic substance,"soluble in water, dimethyl sulfoxide (DMSO), methanol and ethanol, and insoluble in acetonitrile, ethyl acetate, chloroform and acetone"
CCC(C)C(NC(=O)C(NC(=O)C(CC(N)=O)NC(=O)C(CO)NC(=O)C(Cc1c[nH]cn1)NC(=O)CNC(=O)C(NC(=O)C(Cc1c[nH]c2ccccc12)NC(=O)C1CCC(=O)NCC(=O)NC(CO)C(=O)NC(CCC(N)=O)C(=O)NC(CC(C)C)C(=O)NC(C(C)C)C(=O)NC(Cc2ccc(O)cc2)C(=O)NC(CCCNC(=N)N)C(=O)N1)C(C)C)C(C)C)C(=O)NC(CCCCN)C(=O)N1CCCC1C(=O)O (stereo not shown) [K01-B0171-B substance] (GSQLVYREWVGHSNVIKP-OH; lactam N-8; configuration not given here),Weak basic substance,"soluble in water, dimethyl sulfoxide (DMSO), methanol and ethanol, and insoluble in acetonitrile, ethyl acetate, chloroform and acetone"
